Consider 22 molecules from patent publication US20060063784A1, “Method of using substituted pyrazolo [1,5-a] pyrimidines” (priority 2004, published 2006).

The test system of test [1] is 80S14 (p21-deficient) cells. Briefly: Cytotoxicity assay using isogenic cell lines: IC50 in 80S14 (p21-deficient) cells, SRB. The conditions noted are these: 80S14 (p21-deficient) cells, 5 days, SRB, class symbols, read-out: IC50 for 80S14. Format: cell-based, human. In outline:
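80S14 (p21-deficient) cells seeded at 12,000 cells/well overnight, then exposed 5 days at 37 °C to serial dilutions (5 pM–50 μM or 170 pg/ml–10 μg/ml). TCA-fixed, sulforhodamine B-stained, absorbance at 560 nm; IC50 taken from cytotoxicity curves versus untreated controls.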

The subject of the next test is LoVo Colon cell line. As to the kind of experiment: Cytotoxicity assay using LoVo colon cell line, SRB. Format: cell-based. The conditions noted are these: Cellular activity in LoVo cell, 4 days incubation, SRB, read-out: Inhibition of LoVo. The method, boiled down: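 LoVo cells (4000/well, RPMI 1640 with 10% FBS, 37 °C, 7% CO2) seeded overnight, then exposed 4 days to serial dilutions spanning 5 pM-20 μM or 170 pg/ml-10 μg/ml. Survival by SRB staining; IC50 from curves relative to untreated controls.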

Read-outs that look alike come from different tables or passages of the source. Where only a bound is given, the exact number is not on record here.

`Cc1cc(C)cc(-c2cnn3c(-c4cccc(C#N)c4)ccnc23)c1` [Example 490, 3-[3-(3,5-Dimethylphenyl)pyrazolo[1,5-a]pyrimidin-7-yl]benzonitrile]: the IC50 was 10 to 50 µM in test [1] (Homo sapiens, 120 h) and 1 to 20 µM in the test with LoVo Colon cell line (Homo sapiens, 96 h).
For the molecule `Cc1cc(C)cc(-c2cnn3c(-c4cccc(-c5nnn[nH]5)c4)ccnc23)c1` [Example 491, 3-(3,5-Dimethylphenyl)-7-[3-(1H-tetraazol-5-yl)phenyl]pyrazolo[1,5-a]pyrimidine], the IC50 in test [1] (Homo sapiens, 120 h) was in the range of 1 to 10 µM; with LoVo Colon cell line (Homo sapiens, 96 h), 1 to 20 µM.
In the same order, the values of `Cc1cc(C)cc(-c2cnn3c(-c4cccc(-c5nnn(CC6CCC6)n5)c4)ccnc23)c1` [Example 492, 7-{3-[2-(Cyclobutylmethyl)-2H-tetraazol-5-yl]phenyl}-3-(3,5-dimethylphenyl)pyrazolo[1,5-a]pyrimidine] are 1 to 10 µM and 0.1 to 1 µM.
Take `Cc1cc(C)cc(-c2cnn3c(-c4cccc(-c5nnn(CCN6CCOCC6)n5)c4)ccnc23)c1` [Example 493, 3-(3,5-Dimethylphenyl)-7-{3-[2-(2-morpholin-4-ylethyl)72H-tetraazol-5-yl]phenyl}pyrazolo[1,5-a]pyrimidine]: the IC50 lay within 1 to 10 µM in test [1] and 0.1 to 1 µM in the test with LoVo Colon cell line.
As to `Cc1cc(C)cc(-c2cnn3c(-c4cccc(-c5nnn(Cc6cccnc6)n5)c4)ccnc23)c1` [Example 494, 3-(3,5-Dimethylphenyl)-7-{3-[2-(pyridin-3-ylmethyl)-2H-tetrazol-5-yl]phenyl}pyrazolo[1,5-a]pyrimidine], the IC50 in test [1] (Homo sapiens, 120 h) was in the range of 1 to 10 µM; with LoVo Colon cell line (Homo sapiens, 96 h), 0.1 to 1 µM.
On to `Cc1cc(C)cc(-c2cnn3c(-c4cccc(-c5nnn(Cc6ccccn6)n5)c4)ccnc23)c1` [Example 495, 3-(3,5-Dimethylphenyl)-7-{3-[2-(pyridin-2-ylmethyl)-2H-tetrazol-5-yl]phenyl}pyrazolo[1,5-a]pyrimidine], for which the IC50 in test [1] (Homo sapiens, 120 h) was 10 to 50 µM; with LoVo Colon cell line (Homo sapiens, 96 h) it was 0.1 to 1 µM.
Take `CCn1nnc(-c2cccc(-c3ccnc4c(-c5cc(C)cc(C)c5)cnn34)c2)n1` [Example 496, 3-(3,5-Dimethylphenyl)-7-[3-(2-ethyl-2H-tetrazol-5-yl)phenyl]pyrazolo[1,5-a]pyrimidine]: the IC50 in test [1] (Homo sapiens, 120 h) fell in the range of 1 to 10 µM; in the test on LoVo Colon cell line (Homo sapiens, 96 h), 0.1 to 1 µM.
On to `O=C(c1cccs1)c1cnn2c(-c3cccc(-c4nnn[nH]4)c3)ccnc12` [Example 501, {7-[3-(1H-Tetraazol-5-yl)phenyl]pyrazolo[1,5-a]pyrimidin-3-yl}(thien-2-yl)methanone], for which the IC50 in test [1] (Homo sapiens, 120 h) was in the range of 10 to 50 µM; in the test on LoVo Colon cell line (Homo sapiens, 96 h), 1 to 20 µM.
In the same order, the values of `CCn1nnc(-c2cccc(-c3ccnc4c(C(=O)c5cccs5)cnn34)c2)n1` [Example 502, {7-[3-(2-Ethyl-2H-tetraazol-5-yl)phenyl]pyrazolo[1,5-a]pyrimidin-3-yl}(thien-2-yl)methanone] are 1 to 10 µM and 0.1 to 1 µM.
Consider `O=C(c1cccs1)c1cnn2c(-c3cccc(-c4nnn(Cc5cccnc5)n4)c3)ccnc12` [Example 503, (7-{3-[2-(Pyridin-3-ylmethyl)-2H-tetraazol-5-yl]phenyl}pyrazolo[1,5-a]pyrimidin-3-yl)(thien-2-yl)methanone], for which the IC50 is less than 1 µM in test [1] (Homo sapiens, 120 h) and 0.1 to 1 µM in the test with LoVo Colon cell line (Homo sapiens, 96 h).
Regarding `CC(C)Cn1nnc(-c2cccc(-c3ccnc4c(C(=O)c5cccs5)cnn34)c2)n1` [Example 504, {7-[3-(2-Isobutyl-2H-tetraazol-5-yl)phenyl]pyrazolo[1,5-a]pyrimidin-3-yl}(thien-2-yl)methanone], the IC50 in test [1] (Homo sapiens, 120 h) was less than 1 µM; in the test on LoVo Colon cell line (Homo sapiens, 96 h), 0.1 to 1 µM.
Regarding `O=C(c1cccs1)c1cnn2c(-c3cccc(-c4nnn(CC5CCC5)n4)c3)ccnc12` [Example 505, (7-{3-[2-(Cyclobutylmethyl)-2H-tetraazol-5-yl]phenyl}pyrazolo[1,5-a]pyrimidin-3-yl)(thien-2-yl)methanone], the IC50 is less than 1 µM in test [1] (Homo sapiens, 120 h) and less than 0.1 µM with LoVo Colon cell line (Homo sapiens, 96 h).
As for `CCCCn1nnc(-c2cccc(-c3ccnc4c(C(=O)c5cccs5)cnn34)c2)n1` [Example 506, {7-[3-(2-Butyl-2H-tetraazol-5-yl)phenyl]pyrazolo[1,5-a]pyrimidin-3-yl) (thien-2-yl)methanone], the IC50 is less than 1 µM in test [1] (Homo sapiens, 120 h) and less than 0.1 µM with LoVo Colon cell line (Homo sapiens, 96 h).
For `O=C(c1cccs1)c1cnn2c(-c3cccc(-c4nnn(CCN5CCOCC5)n4)c3)ccnc12` [Example 507, (7-{3-[2-(2-Morpholin-4-ylethyl)-2H-tetraazol-5-yl]phenyl}pyrazolo[1,5-a]pyrimidin-3-yl)(thien-2-yl)methanone], the IC50 in test [1] (Homo sapiens, 120 h) was 1 to 10 µM; in the test with LoVo Colon cell line (Homo sapiens, 96 h) it was 0.1 to 1 µM.
`O=C(c1cccs1)c1cnn2c(-c3cccc(-c4nnnn4CC4CCC4)c3)ccnc12` [Example 508, (7-{3-[1-(Cyclobutylmethyl)-1H-tetraazol-5-yl]phenyl}pyrazolo[1,5-a]pyrimidin-3-yl)(thien-2-yl)methanone]: the IC50 in test [1] (Homo sapiens, 120 h) lay within 10 to 50 µM; in the test on LoVo Colon cell line (Homo sapiens, 96 h), 1 to 20 µM.
For `O=C(c1cccs1)c1cnn2c(-c3cccc(-c4nnn(Cc5ccccn5)n4)c3)ccnc12` [Example 509, (7-{3-[2-(Pyridin-2-ylmethyl)-2H-tetraazol-5-yl]phenyl}pyrazolo[1,5-a]pyrimidin-3-yl)(thien-2-yl)methanone], the IC50 in test [1] (Homo sapiens, 120 h) is less than 1 µM; with LoVo Colon cell line (Homo sapiens, 96 h), 0.1 to 1 µM.
In the same order, the values of `O=C(c1cccs1)c1cnn2c(-c3cccc(-c4nnn(Cc5ccncc5)n4)c3)ccnc12` [Example 510, (7-{3-[2-(Pyridin-4-ylmethyl)-2H-tetraazol-5-yl]phenyl}pyrazolo[1,5-a]pyrimidin-3-yl)(thien-2-yl)methanone] are less than 1 µM and less than 0.1 µM.
In the same order, the values of `O=C(c1cccs1)c1cnn2c(-c3cccc(-c4nnn(CCN5CCCC5)n4)c3)ccnc12` [Example 511, (7-{3-[2-(2-Pyrrolidin-1-ylethyl)-2H-tetraazol-5-yl]phenyl}pyrazolo[1,5-a]pyrimidin-3-yl)(thien-2-yl)methanone] are less than 1 µM and 0.1 to 1 µM.
In the same order, the values of `O=C(c1cccs1)c1cnn2c(-c3cccc(-c4nnn(CCN5CCCCC5)n4)c3)ccnc12` [Example 512, (7-{3-[2-(2-Piperidin-1-ylethyl)-2H-tetraazol-5-yl]phenyl}pyrazolo[1,5-a]pyrimidin-3-yl)(thien-2-yl)methanone] are 1 to 10 µM and 0.1 to 1 µM.
As to `O=C(c1cccs1)c1cnn2c(-c3cccc(-c4nnn(CCO)n4)c3)ccnc12` [Example 513, (7-{3-[2-(2-Hydroxyethyl)-2H-tetraazol-5-yl]phenyl}pyrazolo[1,5-a]pyrimidin-3-yl)(thien-2-yl)methanone], the IC50 in test [1] (Homo sapiens, 120 h) lay within 1 to 10 µM; in the test on LoVo Colon cell line (Homo sapiens, 96 h) it was 0.1 to 1 µM.
`O=C(c1cccs1)c1cnn2c(-c3cccc(-c4ccn(CC5CCC5)n4)c3)ccnc12` [Example 515, (7-{3-[1-(Cyclobutylmethyl)-1H-pyrazol-3-yl]phenyl}pyrazolo[1,5-a]pyrimidin-3-yl)(thien-2-yl)methanone]: the IC50 in test [1] (Homo sapiens, 120 h) is less than 1 µM; in the test on LoVo Colon cell line (Homo sapiens, 96 h), less than 0.1 µM.
For `O=C(c1cccs1)c1cnn2c(-c3cccc(-c4ccn(Cc5ccccn5)n4)c3)ccnc12` [Example 517, (7-{3-[1-(Pyridin-2-ylmethyl)-1H-pyrazol-3-yl]phenyl}pyrazolo[1,5-a]pyrimidin-3-yl)(thien-2-yl)methanone], the IC50 in test [1] (Homo sapiens, 120 h) is less than 1 µM; in the test on LoVo Colon cell line (Homo sapiens, 96 h) it was 0.1 to 1 µM.
